Source: ChEMBL document CHEMBL5543112, “Discovery of CBPD-268 as an Exceptionally Potent and Orally Efficacious CBP/p300 PROTAC Degrader Capable of Achieving Tumor Regression” (J Med Chem, 2024)

How the values were obtained:
Cytochrome P450 2B6 = biological target: T1, Cytochrome P450 2B6 (Homo sapiens, UniProt P20813); experiment: Inhibition of CYP2B6 (unknown origin) preincubated with compound for 5 mins followed by NADPH addition and measured after 10 mins by LC-MS/MS analysis; type: ADME
T1 sequence (P20813 whole entry): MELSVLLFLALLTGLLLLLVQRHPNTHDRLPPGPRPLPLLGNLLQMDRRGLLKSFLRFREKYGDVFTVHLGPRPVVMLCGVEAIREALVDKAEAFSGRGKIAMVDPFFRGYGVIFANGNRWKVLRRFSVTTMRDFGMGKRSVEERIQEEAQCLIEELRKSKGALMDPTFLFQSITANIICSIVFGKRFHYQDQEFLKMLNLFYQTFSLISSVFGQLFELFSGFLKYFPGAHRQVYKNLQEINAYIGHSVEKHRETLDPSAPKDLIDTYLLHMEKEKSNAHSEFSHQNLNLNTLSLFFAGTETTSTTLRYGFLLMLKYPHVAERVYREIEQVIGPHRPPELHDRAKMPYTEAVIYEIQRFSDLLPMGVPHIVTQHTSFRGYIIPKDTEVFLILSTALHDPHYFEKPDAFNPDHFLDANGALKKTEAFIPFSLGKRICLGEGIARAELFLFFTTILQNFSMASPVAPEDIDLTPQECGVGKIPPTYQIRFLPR

[1] = Metabolic stability in mouse liver microsome assessed as half life measured upto 60 mins in presence of NADPH by LC-MS/MS analysis; type: ADME; details: liver microsomes

- IC50 (Cytochrome P450 2B6): > 10 µM
- half-life [1]: > 120 min
SMILES: CC(=O)N1CCc2c(c(N3CCCc4cc(-c5cnn(C)c5)c(C(F)F)cc43)nn2[C@H]2CC[C@H](CN3Cc4cc5c(cc4C3)C(=O)N(C3CCC(=O)NC3=O)C5=O)CC2)C1 (some centres not stated)
